≈ marks a conversion by molar mass, not a printed value. Where two headings read alike, the source gives them in different places.
How the values were obtained:
PAMPA, BBB permeability = conditions: for PAMPA BBB (MR %): Membrane Retention; for Papp at 5 h, 0.5 mM: PAMPA, pH 7.4
Method: (§4) Donor solution (0.5 mM) was prepared by diluting 1 mM dimethylsulfoxide (DMSO) compound stock solution using phosphate buffer (pH 7.4, 0.025 M). […] Donor solution (150 μL) was added to each well of the filter plate. To each well of the acceptor plate were added 300 μL of solution (50% DMSO in phosphate buffer). All compounds were tested in three different plates on different days. The sandwich was incubated for 5 h at room temperature under gentle shaking. After the incubation time, the plates were separated, and samples were taken from both receiver and donor sides and analyzed using LC with UV detection at 280 nm.
(§5) Permeability (Papp) for PAMPA was calculated according to the following equation, obtained from Wohnsland and Faller^27 and Sugano et al.^28 equation with some modification in order to obtain permeability values in cm s^−1,
(§6) Drug concentration is estimated by using the peak area integration. Membrane retentions (%) were calculated according to the following equation:
(§7) where r is the ratio between drug concentration in the acceptor and equilibrium concentration, D, A, and Eq represented drug concentration in the donor, acceptor and equilibrium solution, respectively.
(§8) Donor solution of tested compounds (0.5 mM) was prepared by diluting 1 mM dimethylsulfoxide (DMSO) compound stock solution using phosphate buffer (pH 7.4, 25 mM). […] Donor solution (150 μL) was added to each well of the filter plate. To each well of the acceptor plate were added 300 μL of solution (50% DMSO in phosphate buffer). Compounds was tested in three different plates on different days. The sandwich was incubated for 5 h at room temperature under gentle shaking.
(§9) Permeability (Papp) for PAMPA was calculated according to the following equation, obtained from Wohnsland and Faller and Sugano et al.^27, 28.
(§10) Drug concentration is estimated by using the peak area integration. Membrane retention (%) was calculated according to the following equation:

U251 cells = assay: Proliferation assay on U251 cells; format: cell-based, human; conditions: 72 h, viable cells vs untreated
Method: (§1) U87 and U251 cells were purchased from European Collection of Cell Cultures (ECACC, Salisbury, UK) and were cultured in DMEM medium supplemented with 10% Foetal Bovine Serum. In order to determine antiproliferative effect of drugs tumor cells were seeded at 2×10^5 cells/ml density and treated with compounds at indicated concentrations. The cultures were maintained at 37° C. in 5% v/v CO2 for 72 h. Cell number and viability were evaluated by Trypan blue exclusion test. Viable cells were expressed as percentage respect to cells treated with vehicle (=100%). Mean and SD values of at least three different experiments are shown.
(§2) U87 and U251 cells were purchased from European Collection of Cell Cultures (ECACC, Salisbury, UK) and were cultured in DMEM medium supplemented with 10% Foetal Bovine Serum. In order to determine antiproliferative effect of drugs tumor cells were seeded at 2×10^5 cells/ml density and treated with compounds at indicated concentrations. The cultures were maintained at 37° C. in 5% v/v CO2 for 72 h. Cell number and viability were evaluated by Trypan blue exclusion test. Viable cells were expressed as percentage respect to untreated cells (=100%/). Mean and SD values of at least three different experiments are shown.

U87 cells [1] = assay: Proliferation assay on U87 cells; format: cell-based, human; conditions: 72 h, viable cells vs untreated
Method: as §1, §2

Water solubility assay = conditions: for H2O Sol.: Table 8, 20° C., 24 h; for solubility at 24 h / solubility thermodynamic at 24 h: water, 20 °C, thermodynamic from solid
Method: Each solid compound (1 mg) was added to 1 mL of water. […] The suspensions were filtered through a 0.45 μm nylon filter (Acrodisc), and the solubilized compound determined by LC-MS-MS assay. For each compound the determination was performed in triplicate. […] The flow rate was 0.2 mL min-^−1 and injection volume was 5 μL. The instrument operated in positive mode and parameters were: detector 1850 V, drying gas pressure 25.0 psi, desolvation temperature 300.0° C., nebulizing gas 40.0 psi, needle 5000 V and shield 600 V. Nitrogen was used as nebulizer gas and drying gas.
Solid compound (1 mg) was added to 1 mL of water. […] The suspensions were filtered through a 0.45-μm nylon filter (Acrodisc), and the solubilised compound determined by LC-UV-MS assay. The determination was performed in triplicate.
Chromatographic analysis was performed with the method above reported and quantification of compounds was made by comparison with apposite calibration curves realized with standard solutions in methanol.

[2] = PAMPA, intestinal (GI) permeability; conditions: for PAMPA GI (MR %): Membrane Retention; for Papp at 5 h, 0.5 mM: PAMPA, pH 7.4
Method: as §4, §5, §6, §7, §8, §9, §10

[3] = Microsomal stability assay; conditions: percentage of unmodified drug, Table 8
SH-SY5Y cells = assay: Antiproliferative activity on neuroblastoma human cell line SH-SY5Y; format: cell-based; conditions: 72 h, viable cells vs untreated
Method: (§3) In vitro experiments were carried out using the human neuroblastoma cell line SH-SY5Y. Cells were purchased from American Type Culture Collection (ATCC, Manassas, Va., USA) and were cultured in DMEM medium supplemented with 100/Foetal Bovine Serum. In order to determine antiproliferative effect of drugs SH-SY5Y cells were seeded at 2×10^5 cells/ml density and treated with compounds at increasing concentrations from 0.01 to 50 μM. The cultures were maintained at 37° C. in 5% v/v CO2 for 72 h. Cell number and vitality were evaluated using the automatic cell counter NucleoCounter® (Chemometec, Denmark). Results from the NucleoCounter represented either total or non-viable cell concentration, depending on the sample preparation indicated by manufacturer.
as §3, with “10% Foetal” for “100/Foetal”

[4] = system: Fyn mediated phosphorylation of residue Tyr18 in Tau protein; assay: Aβ42 induced Tyr18-Tau phosphorylation in differentiated SH-SY5Y cells; format: cell-based, human
Method: The neuroblastoma cell line SH-SY5Y was cultured in media obtained by mixing equal volume of MEM and HAM F12 supplemented with 15% fetal calf serum (FCS, Australian origin, Lonza), 100 U/ml penicillin, 100 μg/ml streptomycin and 2 mM L-glutamine (all from Euroclone) at 37° C. in humidified air with 5% CO2. The medium was changed every 48 hours. Cells were split at about 80% confluence and never cultured beyond passage 20. Cell differentiation was achieved by pre-treating for 5 days the SH-SY5Y cells with media containing 1% FCS and 10 μM retinoic acid (RA, Sigma Aldrich). Subsequently cells were treated for other 7 days in media with no serum and supplemented with 50 ng/ml of human recombinant brain derived neurotrophic factor (BDNF, Peprotech), 10 ng/ml human recombinant beta nerve growth factor (NGF, Peprotech), 10 ng/ml neuregulin 1 beta 2 protein (NRG, Abcam) and 9.35 μg/ml vitamin D3 (Sigma Aldrich). To confirm full neuronal differentiation, the expression of mature isoforms of Tau were checked. Differentiated cells were treated for 1.5, 3 and 6 hours with media containing 10 μM Aβ42 oligomer/protofibrils and N2 supplement (Life Technologies), in the presence or in the absence of Fyn inhibitors dissolved in DMSO. As control, cells were treated with media containing equivalent amounts of DMSO.
Briefly, Aβ42 peptides (Sigma) were dissolved in 1,1,1,3,3,3-hexafluoro-2-propanol and lyophilized to completely remove the solvent. Lyophilized Aβ42 peptides were reconstituted in DMSO to a working concentration of 10 mM, diluted 1:100 using HAM F12 (without phenol red and glutammine), vortexed for 15 sec and incubated 24 hours at 4° C. A042 oligomer/protofibrils were visualized by SDS-PAGE and silver staining.

human normal fibroblasts = assay: Toxicity in human normal fibroblasts; format: cell-based
K562 cells = assay: Antiproliferative activity on human cell line K562; format: cell-based
Method: In vitro experiments were carried out using the human Chronic Myelogeneous Leukemia cell line K562. Cells were purchased from American Type Culture Collection (ATCC, Manassas, Va., USA) and were cultured in RPMI medium supplemented with 10% Foetal Bovine Serum. […] Cell number and vitality were evaluated using the automatic cell counter NucleoCounteri (Chemometec, Denmark). Results from the NucleoCounter represented either total or non-viable cell concentration, depending on the sample preparation indicated by manufacturer.
In vitro experiments were carried out using the human Chronic Myelogeneous Leukemia cell line K562. Cells were purchased from American Type Culture Collection (ATCC, Manassas, Va., USA) and were cultured in RPMI medium supplemented with 10% Foetal Bovine Serum. […] Cell number and vitality were evaluated using the automatic cell counter NucleoCounter® (Chemometec, Denmark). Results from the NucleoCounter represented either total or non-viable cell concentration, depending on the sample preparation indicated by manufacturer.

[5] = Enzymatic stability in human plasma; format: in vitro ADME; conditions: for half-life at 100 μM: human, pooled human plasma diluted with phosphate buffer, pH 7.4
[6] = Stability tests in phosphate buffer and methanol; format: physicochemical; conditions: 20° C., 48 h incubation
U87 cells [7] = assay: Orthotopic mouse model of GBM; format: in vivo, mice; conditions: 50 mg/kg three times per week for 4 weeks
Method: Survival curves (days) of orthotopic mouse model of GBM.
Male CD1 nude mice (Charles River, Milan, Italy) were maintained under the guidelines established by University of L'Aquila, Medical School and Science and Technology School Board Regulations, complying with the Italian government regulations for the use of laboratory animals. Before any invasive manipulation, mice were anesthetized with a mixture of ketamine (25 mg/ml)/xylazine (5 mg/ml). Tumor grafts were obtained by injecting with a Hamilton syringe mounted on a stereotactic instrument, 2*10^3 U87 cells resuspended in 2 microL PBS (David Kopf Instruments, CA, USA). The cells were injected after the exposition of periosteal cranic site and the drimming of a 1 mm diameter hole localized at 4 mm from striatum and with a depth of 4 mm. The wound was treated with antibiotics and was surgically sutured.

[8] = In vivo pharmacokinetics / biodistribution; parameters: species or system mice; conditions: 50 mg/Kg i.p.; for Quantity of Compound, BLOOD / Quantity of Compound, BRAIN: administered compound itself, BALB/C mice
Method: The animal protocols used were reviewed and approved by the Animal Care and Ethics Committee of the Universita{grave over ( )} degli Studi di Siena, Italy. Male BALB/C mice (weight 20-30 g) were obtained from Charles River (Milan, Italy). […] The blood, previously heparinized, was centrifuged at 4000 rpm for 20 minutes to separate the plasma fraction and then 500 μl were collected in a test tube. […] Samples were centrifuged at 4000 rpm for 20 minutes, the supernatant was recovered, dried under vacuum and analyzed by LC-UV-MS. Brain was homogenized using a glass/glass Potter-Elvehjem homogenizer in presence of Tris-HCl buffer (50 mM) and compounds were recovered using 7 mL of ACN then treated as previously described for blood samples.

[9] = 37° C., read-out: Stability Human Plasma t1/2 (converted)
[10] = methanol, read-out: Stability MeOH t1/2
[11] = phosphate buffer, pH 7.4, read-out: Stability PBS pH 7.4 t1/2

SMILES	PAMPA BBB (MR %) (PAMPA, BBB permeability)	H2O Sol. (Water solubility assay)	PAMPA GI (MR %) [2]	Metabolic Stab. % [3]	IC50 (U251 cells; Homo sapiens, U-251)	IC50 (U87 cells [1]; Homo sapiens, U-87 MG)	IC50 (SH-SY5Y cells; Homo sapiens, SH-SY5Y)	half-life at 100 μM [5, 9]	Papp at 5 h, 0.5 mM (PAMPA, BBB permeability)	solubility at 24 h (Water solubility assay)	solubility thermodynamic at 24 h (Water solubility assay)	half-life at 500 μM [6, 10]	half-life at 500 μM [6, 11]	Papp at 5 h, 0.5 mM [2]	further results
CSc1nc(Nc2cccc(Br)c2)c2cnn(CC(C)c3ccccc3)c2n1 (centres unmarked) [Si278, N-(3-bromophenyl)-6-(methylthio)-1-(2-phenylpropyl)-H-pyrazolo[3,4-d]pyrimidin-4-amine]	(66.3) %	<0.01 µg/mL	(80.4) %	95.1%											PAMPA BBB (PAMPA, BBB permeability; Blood Brain Barrier PAMPA): 0.50 10^−6 cm · sec^−1; IC50 (U251 cells): 3.7 µM; IC50 (U87 cells [1]): 5.8 µM; H2O Sol. (Log S) (Water solubility assay; Table 8): (<−7.60) log mol · L^−1; PAMPA GI ([2]; Gastrointestinal PAMPA, Table 8): 0 10^−6 cm · sec^−1; IC50 (SH-SY5Y cells): 1.2 µM
Cc1ccc(-c2nn(CC(Cl)c3ccccc3)c3ncnc(N)c23)cc1 (centres unmarked) [Si309, 1-(2-Chloro-2-phenylethyl)-3-(4-methylphenyl)-1H-pyrazolo[3,4-d]pyrimidin-4-amine]															duration of inhibitory activity on Tau phosphorylation ([4]; after compound administration): effective up to six hours; Aβ42 induced Tyr18-Tau phosphorylation ([4]; dose dependent): significantly affected; cell toxicity in human normal fibroblasts (human normal fibroblasts): did not showed any sign of cell toxicity; IC50 for cell viability K562 (K562 cells): submicromolar range; IC50 (K562 cells; Homo sapiens, K562, read-out: Cellular Data (IC50, μM) K562): 0.3 ± 0.06 µM
CCCCN(C(=O)OCCN1CCN(C)CC1)c1nc(SCC)nc2c1cnn2CC(Cl)c1ccccc1 (centres unmarked) [proSi20, 2-(4-Methylpiperazin-1-yl)ethyl butyl(1-(2-chloro-2-phenylethyl)-6-(ethylthio)-1H-pyrazolo[3,4-d]pyrimidin-4-yl)carbamate]					0.8 µM	3.6 µM	0.3 µM								
CN1CCN(CCOC(=O)N(c2ccccc2)c2ncnc3c2cnn3CC(Cl)c2ccc(Br)cc2)CC1 (centres unmarked) [proSi223, 2-(4-Methylpiperazin-1-yl)ethyl (1-(2-(4-bromophenyl)-2-chloroethyl)-H-pyrazolo[3,4-d]pyrimidin-4-yl)(phenyl)carbamate]	(24.9) %		(16.0) %		4.7 µM	5.1 µM	12.6 µM	4.47 h	6.97 ×10⁻⁶ cm/s	70.8 µM (≈ 42.4 µg/mL)	41.6 µg/mL (≈ 69.4 µM)	> 48 h	> 48 h	9.91 ×10⁻⁶ cm/s	
CSc1nc(N(C(=O)OCCN2CCN(C)CC2)c2cccc(Br)c2)c2cnn(CC(C)c3ccccc3)c2n1 (centres unmarked) [proSi278 (A), 2-(4-Methylpiperazin-1-yl)ethyl (3-bromophenyl)(6-(methylthio)-1-(2-phenylpropyl)-1H-pyrazolo[3,4-d]pyrimidin-4-yl)carbamate]	(49.8) %	6.47 µg/mL	(67.0) %	99.9%	5.2 µM	6.3 µM	0.4 µM		1.89 ×10⁻⁶ cm/s	11.5 µM (≈ 7.17 µg/mL)		> 48 h	> 48 h	2.11 ×10⁻⁶ cm/s	Stability Human Plasma t1/2 ([5]; 37° C.): 3.21 h; half-life at 100 μM ([5]; read-out: t1/2 in human plasma (converted)): 3.21 h
CN1CCN(CCOC(=O)N(c2cccc(Br)c2)c2nc(SCCN3CCOCC3)nc3c2cnn3CC(Cl)c2ccccc2)CC1 (centres unmarked) [proSi306]	(42.0) %		(45.5) %					3.48 h	2.91 ×10⁻⁶ cm/s	11.7 µM (≈ 8.74 µg/mL)	8.7 µg/mL (≈ 11.7 µM)	> 48 h	> 48 h	2.13 ×10⁻⁶ cm/s	survival of mice respect to control group (U87 cells [7]): significant ability in prolonging survival; brain concentration with respect to the drug [8]: higher brain concentration; Quantity of Compound, BLOOD ([8]; 15′): 10.7 ± 1.11 nmol of compound/g of tissue; Quantity of Compound, BLOOD ([8]; 30′): 8.9 ± 1.22 nmol of compound/g of tissue; Quantity of Compound, BLOOD ([8]; 1 h): 11.4 ± 1.29 nmol of compound/g of tissue; Quantity of Compound, BLOOD ([8]; 2 h): 7.2 ± 2.17 nmol of compound/g of tissue; Quantity of Compound, BLOOD ([8]; 4 h): 6.5 ± 0.58 nmol of compound/g of tissue; Quantity of Compound, BLOOD ([8]; 8 h): 6.2 ± 2.07 nmol of compound/g of tissue; Quantity of Compound, BLOOD ([8]; 24 h): 3.7 ± 0.60 nmol of compound/g of tissue; Quantity of Compound, BLOOD ([8]; […]): 8.3 ± 2.21 nmol of compound/g of tissue; Quantity of Compound, BRAIN ([8]; 15′): 5.3 ± 1.5 nmol of compound/g of tissue; Quantity of Compound, BRAIN ([8]; 30′): 3.4 ± 0.33 nmol of compound/g of tissue; Quantity of Compound, BRAIN ([8]; 1 h): 3.4 ± 2.24 nmol of compound/g of tissue; Quantity of Compound, BRAIN ([8]; 2 h): 2.8 ± 0.60 nmol of compound/g of tissue; Quantity of Compound, BRAIN ([8]; 4 h): 2.9 ± 1.38 nmol of compound/g of tissue; Quantity of Compound, BRAIN ([8]; 8 h): 3.6 ± 2.12 nmol of compound/g of tissue; Quantity of Compound, BRAIN ([8]; 24 h): 6.6 ± 1.08 nmol of compound/g of tissue; Quantity of Compound, BRAIN ([8]; […]): 2.4 ± 0.24 nmol of compound/g of tissue

Source: patent US20180186796A1, “COMPOUNDS AND USES THEREOF” (LEAD DISCOVERY SIENA S.R.L., priority 2014, published 2018)
